Patent US8314068B2, “P2X7 inhibition of epithelial cancers and papillomas” (University Hospitals of Cleveland, priority 2009, dated 2012)
“Also recorded” adds a separate entry of the source.

How the values were obtained:
[1] = target: P2X7 receptor; conditions: cited from earlier work
[2] = tested on: P2X7−/−Pf and P2X7−/−GSK keratinocytes; experiment: Apoptosis in keratinocytes of P2X7-receptor-deficient mice; assay type: cell-based, mouse; conditions: 100 μM BzATP
Description: FIG. 16C: BzATP time-response effect in cultured mouse normal keratinocytes (wild-type, C57B1; filled triangles), or in keratinocytes obtained from C57B1 background P2X7-deficient mice (P2X7^−/−Pfizer; empty circles; or P2X7^−/−GSK; filled circles). Values are means (±SD) of 3 experiments for each condition. Changes in apoptosis were determined using cell-death detection ELISA.
Apoptosis of cultured mouse keratinocytes was quantified in terms of percent solubilized DNA, or by using the commercial cell-death detection ELISA kit (Roche Applied Science, Nutley, N.J.). Wang et al., “P2X7-receptor mediated apoptosis of human cervical epithelial cells” Am J Physiol 2004, 287:C1349-C1358; and Feng et al., “A truncated P2X7 receptor variant (P2X7-j) endogenously expressed in cervical cancer cells antagonizes the full-length P2X7 receptor through hetero-oligomerization” J Biol Chem 2006, 281:17228-17237, respectively.
The experiments utilized primary cultures of epidermal keratinocytes generated from 6-8 weeks old wild-type C57B1 mice (Charles River, Wilmington, Mass.); from P2X7^−/−Pfizer mice constructed by deletion of amino acids 506-532 of the C-terminus (Solle et al., “Altered cytokine production in mice lacking P2X(7) receptors” J Biol Chem 2001, 276:125-32), or from P2X7^−/−GSK mice, which have a lacZ gene inserted at the beginning of exon 1, resulting knockout of the receptor. […]

[3] = tested on: mouse skin; experiment: Local BzATP on normal mouse dorsal skin, 16 weeks (safety, TUNEL, Ki67); assay type: in vivo
Description: BzATP was applied locally twice a week on the surface of the shaved dorsal skin for a total of 16 weeks. The control group included mice that had their back shaved and were treated only with the vehicle. […] See, FIGS. 14A & 14C versus FIGS. 14B & 14D, respectively.
Image-analysis of immunofluorescence data was described (Li et al, 2007). Representative fields were captured and saved in Adobe Photoshop. Pictures were scanned using UN-SCAN-IT (Silk Scientific, Orem Utah) by choosing 3-5 representative fields for each picture. Light intensity in each field was digitized and average pixel density per field was determined using the program software.
TUNEL assays in tissues cross sections were performed using DeadEnd™ Fluorometric TUNEL System (Promega, Madison, Wis.) according to the manufacturer's protocol. For TUNEL-P2X7 co-staining, tissue cross sections were first assayed for TUNEL, followed by P2X7 immunostaining.
Experiments using mice were done according to an approved CWRU IACUC IRB protocol [2006-0141]. Experiments utilized 6-8 weeks old FVB female mice (obtained from Charles River, Wilmington, Mass.). The animal's dorsal skin (about 3×5 cm) was shaved using Oster animal clipper (Mountain Home, Ark.) followed by weekly application of Nair® hair remover lotion. Treatments included the application of one or more of the following drugs, directly onto the shaved dorsal skin: DMBA (50 μg/200 μl acetone [950 μM, 190 nmol, 3.3 μg/cm^2]); TPA (3 μg/200 μl acetone [20 μM, 4 nmol, 0.2 μg/cm^2]); BzATP (14.3 μg/200 μl of 2.3/1 vol/vol solution of propylene-glycol [PG]/ethanol [EtOH][100 μM, 20 nmol, 1.0 μg/cm^2]); or the BzATP vehicle only (200 μl of PG/EtOH). DMBA was applied once, while TPA and BzATP were applied twice a week. Skin neoplasia in the mice were induced by the “Two-Step” method, which involved tumor initiation by local treatment with 7,12-dimethylbenz(a)anthracene (DMBA), followed by tumor promotion with local treatment of 12-O-tetradecanoylphorbol-13-acetate (TPA). Guo et al., “Disruption of EphA2 receptor tyrosine kinase leads to increased susceptibility to carcinogenesis in mouse skin” Cancer Res 2006, 66:7050-7058. The concentration/dose of BzATP and frequency of treatments were chosen based on data in cultured cells (supra).
From each animal blood samples were obtained from the retro-bulbar venous complex for ALT (SGPT) and AST (SGOT) assays. In addition, dorsal skin strips were obtained from each animal for microscopic H&E tissue evaluation, Ki67 immunostaining, and in-situ detection of DNA fragmentation by the TUNEL method.
Assays used Liquid ALT and Liquid AST reagent sets (Cat # A7526-150a and A7561-150, respectively) obtained from Pointe Scientific (Canton Mich.), and were performed according to the supplier instructions.

[4] = tested on: mouse wild-type keratinocytes; experiment: Cytosolic calcium (Fluo-4) in mouse wild-type keratinocytes; assay type: cell-based
Description: FIG. 17A: Time course of changes in cytosolic calcium (ΔCa^2+i), in medium containing 1.2 mM Ca^2+ (upper trace) or 1.2 mM Ca2+ plus 1.2 mM EGTA (lower trace).
(§1) FIG. 17C: Dose response profile comparison between ΔCa^2+i and Eth-Br influx. Cells were treated with each BzATP concentration for […]. Levels of ΔCa^2+i (empty circles) were determined 2 min after adding BzATP; changes in Eth-Br fluorescence (filled circles) were determined 5 min after adding BzATP. Values=means±SD. Experiments were repeated 3 times. AU=arbitrary units.
(§2) Changes in Ca^2+i in cultured cells were determined in terms of changes in intracellular Fluo-4 fluorescence using dynamic confocal laser scanning microscopy. Cultured mouse keratinocytes were loaded with 5 μM Fluo-4/AM, and imaged with a Zeiss LSM 510 inverted real-time confocal microscope. Images were collected at 488 nm/505 nm (exc/emi) at intervals of 10 to 15 seconds after treatment with 100 μM BzATP, added to the perfusate. For ethidium bromide influx experiments, glass-bottomed dishes cultured with mouse keratinocytes were placed in the microscope. Images (collected at 488 nm/505 nm [exc/emi]) were taken before, and at intervals of 30 seconds after adding 5 μM ethidium bromide to the perfusate as described. Average fluorescence intensity was quantified from collated images using MetaVue software (Fryer Company Inc., Huntley, Ill.) by subtracting the basal intensity value.

[5] = tested on: P2X7 pores; experiment: Ethidium bromide influx (P2X7 pore formation) in mouse wild-type keratinocytes; assay type: cell-based
Description: FIG. 17B: Time course of influx of ethidium bromide (Eth-Br).
as §1, §2

## Nc1ncnc2c1ncn2[C@@H]1O[C@H](COP(=O)(O)OP(=O)(O)OP(=O)(O)O)[C@@H](OC(=O)c2ccc(C(=O)c3ccccc3)cc2)[C@H]1O [BzATP, 3′-O-(4-benzoylbenzoyl)adenosine triphosphate]
[1]
  EC50: 35 µM
[1]; greater potency than ATP
  potency at the P2X7 receptor relative to ATP: 5-10 fold
[2]
  induction of apoptosis: failed to induce apoptosis
[3]; 16 weeks
  Ki67 immunoreactivity versus control group: no significant differences in Ki67 immunoreactivity
  histological evaluation of dorsal skin versus control group: no differences
  mean serum levels of ALT (SGPT) and AST (SGOT): in the normal range for the mouse
[3]; 16 weeks, n=3
  TUNEL pixel density, hair-shaft cross sections: 6.1±0.8
  TUNEL staining mean pixel density (±SD), epidermis: 5.2±0.3
[3]; 16 weeks, normal mice
  thinning or ulceration of the skin: did not produce a thinning or ulceration of the skin
[3]; mice, applied locally on the skin
  local or systemic adverse effects of local BzATP treatment: did not result in any local or systemic adverse events; also recorded: no adverse systemic effects; also recorded: no significant effect on the behavior of the animals, feeding habits, body weight, and liver functions; also recorded: did not produce local or systemic adverse effects
[3]; twice a week, 16 weeks, local
  behavior, feeding habits, body weights: no effects were observed
  gross appearance of the treated skin: no noticeable effect
[4]
  concentration of pre-maximal response, cytosolic calcium: 100 to 250 µM
  threshold concentration, cytosolic calcium: 50 to 100 nM
[4]; 100 μM BzATP, 1.2 mM Ca^2+
  change in cytosolic calcium: acute increase in cytosolic calcium
  duration of increase in cytosolic calcium: at least 6 minutes
[5]
  concentration of pre-maximal response, ethidium bromide influx: 100 to 250 µM
  onset of pore formation and augmented calcium influx after adding BzATP: 30 to 60 s
  threshold concentration, ethidium bromide influx: 50 to 100 nM
[5]; 100 μM BzATP
  influx of ethidium bromide: acute increase in the influx of ethidium bromide
